What was measured:
Assay type in all cases: functional
Botrytis cinerea [1] = experiment: Antifungal activity against Benzimidalzole-resistant Botryotinia fuckeliana isolate Bc-44 infected compound-treated kidney bean leaves at 0.8 ppm after 4 days
Botrytis cinerea [2] = experiment: Ratio of EC50 for Benzimidalzole-sensitive Botryotinia fuckeliana isolate Bc-3 to EC50 for Benzimidalzole-resistant Botryotinia fuckeliana isolate Bc-31
Cercospora beticola = experiment: Antifungal activity against Benzimidalzole-resistant Cercospora beticola isolate Cb-19 infected in sugar beet seedlings at 50 ppm applied as soil drench 3 days prior to inoculation
Botrytis cinerea [3] = experiment: Antifungal activity against Benzimidalzole-resistant Botryotinia fuckeliana isolate Bc-20 infected compound-treated kidney bean leaves at 50 ppm after 4 days
Botrytis cinerea [4] = experiment: Antifungal activity against Benzimidalzole-resistant Botryotinia fuckeliana isolate Bc-20 infected compound-treated kidney bean leaves at 200 ppm after 4 days

SMILES	Activity (Botrytis cinerea [1])	Ratio EC50 (Botrytis cinerea [2])	Activity (Cercospora beticola)	Activity (Botrytis cinerea [3])	Activity (Botrytis cinerea [4])
C#CCOc1cc(N/C=N/OC)cc(Cl)c1OCC#C	75%	> 1000	68%	–	–
C#CCOc1c(Cl)cc(N/C=N/OC)cc1Cl	–	> 1000	–	6%	11%

— ChEMBL document CHEMBL3046025, “Fungitoxic Properties of N-Phenylformamidoximes in Control of Benzimidazole-Resistant Isolates of Fungi” (1992)
